Measurements: patent publication US20100099640A1, “TISSUE DEGENERATION PROTECTION” (priority 2007, published 2010)

Columns and labels:
[1] = Body weight of DKO mice during the 12-week treatment period; type: in vivo, mouse; details: stevioside 10 mg/kg orally for 12 weeks (12 to 24 weeks of age); placebo 43%
Description: (§1) Homozygous LDL-receptor-knockout mice (LDLR^(−/−)), heterozygous ob/+, and C57BL6 mice were purchased from Jackson Laboratory, Bar Harbor, Me. LDLR^(−/−) mice were backcrossed into a C57BL6 background to the 10th generation. To obtain DKO mice with combined leptin deficiency (ob/ob) and LDL-receptor deficiency, LDLR^(−/−) and ob/+ mice were crossed. All offspring were genotyped by polymerase chain reaction (PCR) techniques. All mice were housed at 22° C. on a fixed 12/12-hour light/dark cycle. Experimental procedures in animals were performed in accordance with protocols approved by the Institutional Animal Care and Research Advisory Committee. All mice were fed standard chow containing 4% fat (Pavan Service). Food intake was ≈5.7 g/d. Mice (about 50 g) were treated with stevioside (N=14; 10 mg/kg), steviol (N=9; 5 mg/kg) or placebo (N=17) for 12 weeks between 12 and 24 weeks of age. Stevioside (Molecular weight: 804) was dissolved in water (1 mg/ml) and 500 μl of the solution was administered orally. Steviol (Molecular weight: 318) was dissolved in water containing 6% NaHCO3 (1 mg/ml) and 250 μl of the solution was administered orally.

[2] = system: RNA expression in white visceral (intra-abdominal) adipose tissue; experiment: Real-time RT-PCR of RNA expression in white visceral adipose tissue of treated DKO mice; type: in vivo, mouse
Description: as §1
(§2) The level of RNA expression in extracts of white visceral (intra-abdominal) adipose tissue and aortic arch was measured by real-time reverse transcription (RT)-PCR. Total RNA was extracted with the Trizol reagent (InVitrogen) and purified on an RNeasy kit column (Qiagen). First-strand cDNA was generated from total RNA by RT using random primers from Takara and Superscript III reverse transcriptase (InVitrogen). Quantitative real-time PCR was performed using SybrGreen master mix according to the supplier protocols (Applied Biosystems).). Oligonucleotides (InVitrogen) used as forward primer (F) and reverse primer (R) were: for mouse PPARalpha: F: 5′-[…]-3′; R: 5′-[…]-3′; for mouse PPARgamma: F: 5′-[…]-3′; R: 5′-GTCAGCGGGTGGGACTTTC-3′; for mouse FABP4: F: 5′-AACTGGGCGTGGAATTCG-3′; R: 5′-[…]-3′; for mouse iNOS: F: 5′-[…]-3′; R: 5′-[…]-3′; for mouse GLUT-4: F: 5′-[…]-3′; R: 5′-[…]-3′; for mouse IRS-1: F: 5′-[…]-3′; R: 5′-CGCCTCGGGAAGAGACAGT-3′; for mouse IRS-2: F: 5′-[…]-3′: R: 5′-[…]-3′; for mouse LXRalpha: F: 5′-[…]-3′; R: 5′-[…]-3′; for mouse SOD1: F: 5′-[…]-3′; R: 5′-[…]-3′; for mouse SOD2: F: 5′-TCGGTGGCGTTGAGATTGT; R: 5′-[…]-3′; for mouse SOD3: F: 5′-[…]-3′; R: 5′-GCTGCCGGAAGAGAACCAA-3′; and for mouse β-actin (housekeeping gene), F: 5′-[…]-3′; R: 5′-[…]-3′. The level of mRNA expression was calculated using the threshold cycle (Ct) value, i.e., the number of PCR cycles at which the fluorescent signal during the PCR reaches a fixed threshold. For each sample, the Ct both for the gene of interest and for the housekeeping gene β-actin were determined to calculate ΔCt,sample (Ct,target gene−Ct,housekeeping gene), thus normalizing the data and correcting for differences in amount and/or quality between the different RNA samples. The expression levels were related to an external calibrator consisting of intra-abdominal adipose tissue from C57BL6 control mice. Subsequently, ΔΔCt (ΔCt,sample−ΔCt,calibrator) was determined, and the relative expression levels were calculated from 2^−ΔΔCt according to the manufacturer's instructions (Applied Biosystems). RNA expression levels are thus indicated as arbitrary units ±SD

[3] = system: RNA expression in aortic arch; experiment: Real-time RT-PCR of RNA expression in aortic arch of treated DKO mice; type: in vivo, mouse
Description: as §1, §2

healthy subjects = experiment: Stevioside 250 mg capsules thrice daily in healthy subjects; type: in vivo, human; details: 10 healthy subjects
Source text: The present invention relates to the diterpenoic tetrahydropyran, steviol-19-glucuronide (a natural metabolite of stevioside) and other diterpenoic tetrahydropyran derivatives. […] However, oral administration of stevioside results in the surprising finding that it increases the expression and activity of PPARs, and that it exerts system biological effects to normalise lipid metabolism and to inhibit the formation atherosclerotic cardiovascular disease.

[4] = system: everted gastrointestinal sacs of rats and Caco-2 cell layers; details: everted gastrointestinal sacs of rats, Caco-2 cell layers; cited from earlier work
[5] = system: Chinese hypertensive men and women; details: cited from earlier work
[6] = system: mouse pancreatic islets, β-cell line INS-1; details: direct action on β-cells; cited from earlier work
hypertensive rats = details: direct intravenous injection; cited from earlier work
diabetic rats = details: blood of diabetic rats; cited from earlier work
bacteria of the colon = details: cited from earlier work
[7] = adipose tissue, stevioside 10 mg/kg orally, 12 weeks
[8] = adipose tissue, treatment with stevioside
[9] = aortic arch, stevioside 10 mg/kg orally, 12 weeks
[10] = time points 3 days after administration

expression of catalase [2, 8]: increased expression
expression of the insulin receptor (INSR) [2, 8]: increased expression
24-hour urinary volume (healthy subjects): not significantly different
urinary excretion of electrolytes (healthy subjects): not significantly different
blood biochemical parameters, control vs stevioside condition (healthy subjects; [10]): does not provide significant differences
Structure (SMILES): C=C1C[C@@]23CC[C@H]4C(C)(CCC[C@@]4(C)C(=O)O[C@@H]4O[C@H](CO)C(O)[C@H](O)C4O)[C@@H]2CCC1(OC1O[C@H](CO)C(O)C(O)C1OC1O[C@H](CO)C(O)[C@H](O)C1O)C3 (stereo in doubt) [stevioside, Kaur-16-en-18-oic acid, 13-[(2-O-b-D-glucopyranosyl-b-D-glucopyranosyl)oxy]-, b-D-glucopyranosyl ester, (4a)-]
increase of weight during the treatment period [1]: 41%
LPL expression ([2]; adipose tissue of stevioside-treated mice): not associated with a change
expression of FABP-4 [2, 7]: increased expression
expression of GLUT-4 [2, 7]: increased expression
expression of IRS-1 [2, 7]: increased expression
expression of IRS-2 [2, 7]: increased expression
expression of LXRalpha [2, 7]: increased expression
expression of PPARalpha [2, 7]: increased expression
expression of PPARgamma [2, 7]: increased expression
expression of the antioxidant SOD3 [2, 7]: increased expression
expression of CD36 [2, 8]: increased expression
eNOS ([3]; aorta of stevioside-treated mice): not affected
expression of IRS2 [3, 9]: increased expression
expression of PPARalpha [3, 9]: did not increase
expression of SOD1 [3, 9]: increased expression
expression of SOD2 [3, 9]: increased expression
expression of the inflammatory iNOS [3, 9]: decreased the expression
mean blood glucose, control vs stevioside condition (healthy subjects): no significant difference
mean insulin, control vs stevioside condition (healthy subjects): no significant difference
blood pressure, control vs stevioside condition (healthy subjects; [10]): does not provide significant differences
uptake by the intestinal tract [4]: extremely low
lowering of systolic and diastolic blood pressure ([5]; 750 mg or 1500 mg of stevioside a day for one or two years): about 7%
fasting glucose concentrations ([5]; long-term administration, volunteers with normal glucose levels): did not reveal effects
insulin secretion [6]: stimulation of insulin secretion
blood pressure (hypertensive rats): blood pressure reduction
HDL-cholesterol (diabetic rats): increases
serum concentration of LDL cholesterol (diabetic rats): lowers
serum concentration of triglycerides (diabetic rats): lowers
degradation by bacteria of the colon (bacteria of the colon): degraded
